Like-named read-outs stand apart in the source and are kept apart here.
Assays:
[1] = test system: Wnt pathway genes incl. Porcupine (PORCN); assay: RNA-seq of MDA-MB-231 before and after Buparlisib treatment; type: cell-based, human; conditions: MDA-MB-231, RNA-seq after vs before treatment
Description: RNA-sequencing for the Buparlisib treated MDA-MB-231 cell line experiment was performed as follows. To enrich for the non-ribosomal RNA transcriptome, RNA samples were first depleted of ribosomal RNA using the Low Input Ribominus Kit (Life Technologies). ERCC spike-in controls (Pool 1) were introduced for all samples (Life Technologies). RNA libraries were constructed using the Ion Total RNA-Seq Kit for AB Library Builder System (Life Technologies) per manufacturer's instructions. Libraries were barcoded using the IonXpress RNA-Seq Barcode 1-16 Kit (Life Technologies), and libraries were quantified using the Agilent TapeStation 2200 along with the DNA D1K Kit. Libraries were diluted to a concentration of 11 picomolar prior to templating and emulsion PCR using the Ion Template OT2 200 v2 kit along with Ion OneTouch 2 instrument (Life Technologies). Templates were quantified using the IonSphere Quality Control Kit (Life Technologies). Samples were sequenced on an Ion Proton Next-Generation Sequencer using the Ion Proton PI chip and the Ion PI Sequencing 200 v2 kit (Life Technologies). Samples were sequenced using 2 RNA-seq libraries/samples per chip to an average of 30-40 million reads per sample. Reads were mapped to the human genome (hg19) using the STAR algorithm (Dobin et al. Bioinformatics 29, 15-21 (2013)). Aligned BAM files were then imported into Partek Genomics Suite. […]

[2] = test system: phosphorylated-AKT (p-AKT Ser 473); assay: Western blot of phospho-AKT in TNBC cell lines; type: cell-based; conditions: MDA-MB-231, HCC70, HCC1143; 1 μM or 10 μM; 72 hours
Description: (§1) For Western Blot analysis, target modulation was assessed using qPCR for Axin2 (a marker of WNT974), and western blot for Porcupine and Phospho-Akt […] (a marker of Buparlisib activity). qPCR was performed using Taqman assays (Life Technologies). For western blotting, protein was isolated using RIPA buffer and quantified with BCA assay (Thermo Fisher). Protein was run on Bis-Tris gels (Life Technologies) and transferred to PVDF. Primary pAKT-[…] antibody (Cell Signaling Technology, Beverly, Mass.), β-actin (Cell Signaling Technology), and PORCN (Abcam, Cambridge, England) were incubated overnight with subsequent 1 hour incubation with HRP-conjugate secondary antibody. Staining was performed using a chemiluminescent substrate (ThermoFisher). Imaging was performed using an LAS-4000 Luminescent Image Analyzer (Fujifilm, Tokyo, Japan). Three TNBC cell lines: MDA-MB-231, HCC70, and HCC1143 were treated with either 0, 1 μM or 10 μM Buparlisib. After 72 hours, protein was isolated and PORCN and pAKT expression was observed.

[3] = test system: Porcupine (PORCN); assay: Western blot of Porcupine in TNBC cell lines; type: cell-based; conditions: MDA-MB-231, HCC70, HCC1143; 1 μM or 10 μM; 72 hours
Description: as §1

[4] = In vivo single-dose PK, plasma HPLC-MS/MS; set-up: species or system NSG mice; conditions: for AUC(0-inf) / Cmax / Tmax / half-life / Vd/F: NOD-scid IL2Rgamma-null (NSG), mouse, po; for Vd/F: read-out: Vdss/F; for Cl/F: single dose po
Description: For pharmacokinetic studies, NOD-scid IL2Rgamma-null (NSG) mice were obtained from the In Vivo Therapeutics (IVT) Core at the Indiana University School of Medicine and given a single dose of Buparlisib, WNT974, or the combination at pre-established concentrations of 30 mg/kg and 3 mg/kg respectively. This experiment employed 45 NSG mice (n=15 for each group). Plasma was drawn from 3 mice from each group at 0.5, 1, 2, 6, and 24 hours post dosage. Buparlisib and WNT974 were quantified in the plasma using high-performance liquid chromatography-mass spectrometry (HPLC-MS/MS). Pharmacokinetic (PK) parameters for Buparlisib and WNT974 including area under the curve (AUC), area under the moment curve (AUMC), and half-life (t½) were estimated using non-compartmental methods with Excel and WinNonlin v 2.0 (Certara, Princeton, N.J.). The maximum plasma concentration (Cmax) and time of Cmax (tmax) was calculated from the data. The systemic clearance (Cl/F, where F=bioavailability) of each drug was calculated from the dose and AUC0-∝The apparent volume of distribution (Vdss/F) was estimated from the Cl/F and mean residence time. The single-agent pharmacokinetic parameters were compared to the drug combination parameters to determine whether a drug-drug interaction exists.

[5] = test system: TMD-231 TNBC cells; assay: Pharmacodynamic study, TMD-231 xenograft tumor volume; type: in vivo, NSG mice; conditions: single agent, 7 days once-a-day; Buparlisib 30 mg/kg, WNT974 3 mg/kg
Description: For the pharmacodynamic studies, NSG mice were implanted with TMD-231 TNBC cells into the mammary fat pad of 24 NSG mice (6 mice per group: Vehicle, Buparlisib, WNT974, Buparlisib+WNT974). The TMD-231 cell line is a variant of the MDA-MB-231 cell line that metastasizes to the lung. Tumors were allowed to grow for 29 days to an average size of approximately 350 mm^3 prior to dosing. To validate compound-mediated modulation of the PI3K/mTOR and Wnt signaling pathways, mice were dosed once-a-day with vehicle, Buparlisib (30 mg/kg), WNT974 (3 mg/kg), or the combination for 7 days, with intermittent tumor measurements.

[6] = Quantification of drug in resected tumors (PD study); type: in vivo, NSG mice; conditions: tumors resected 1 hour and 7 hours after last dose, day 7; HPLC-MS/MS
[7] = test system: Phospho-AKT; assay: pAKT western blot on TMD-231 tumors (PD study); type: in vivo, NSG mice; conditions: 7 days once-a-day; Buparlisib 30 mg/kg, WNT974 3 mg/kg
Description: as §1, with “Japan).” for “Japan). Three TNBC cell lines: MDA-MB-231, HCC70, and HCC1143 were treated with either 0, 1 μM or 10 μM Buparlisib. After 72 hours, protein was isolated and PORCN and pAKT expression was observed.”

[8] = test system: AXIN2 RNA; assay: Axin2 RNA qPCR on TMD-231 tumors (PD study); type: in vivo, NSG mice; conditions: 7 days once-a-day; Buparlisib 30 mg/kg, WNT974 3 mg/kg
Description: as §1, with “Japan).” for “Japan). Three TNBC cell lines: MDA-MB-231, HCC70, and HCC1143 were treated with either 0, 1 μM or 10 μM Buparlisib. After 72 hours, protein was isolated and PORCN and pAKT expression was observed.”

[9] = test system: TMD-231 lung metastases; assay: Lung metastases quantification (Ki67), TMD-231 model; type: in vivo, NSG mice; conditions: Ki67 positive pixels in lung sections; Buparlisib 30 mg/kg, WNT974 3 mg/kg
Description: For the pharmacodynamic studies, NSG mice were implanted with TMD-231 TNBC cells into the mammary fat pad of 24 NSG mice (6 mice per group: Vehicle, Buparlisib, WNT974, Buparlisib+WNT974). The TMD-231 cell line is a variant of the MDA-MB-231 cell line that metastasizes to the lung. Tumors were allowed to grow for 29 days to an average size of approximately 350 mm^3 prior to dosing. To validate compound-mediated modulation of the PI3K/mTOR and Wnt signaling pathways, mice were dosed once-a-day with vehicle, Buparlisib (30 mg/kg), WNT974 (3 mg/kg), or the combination for 7 days, with intermittent tumor measurements. […] To quantify lung metastases, lungs were extracted, fixed in 10% formalin, and processed in paraffin. Five-micrometer sections were H&E stained, deparaffinized, blocked, and stained using primary anti-human Ki67 antibody (DAKO, Carpinteria, Calif.). The Aperio whole slide digital imaging system was used for imaging (Leica, Wetzlar, Germany). Using the Aperio ScanScope CS, 20× images were taken at scan times ranging from 1.5 to 2.25 minutes. The total nuclear labeling index (Ki67) was generated using the Aperio ImageScope standard positive pixel algorithm. The Image Analysis software was used to calculate the percent of positive pixels (brown staining) in one large cross section from each lung.

[10] = test system: TNBC patient derived xenograft (PDX) (ID: BR0901); assay: TNBC PDX study, survival; type: in vivo, NSG mice; conditions: n=10 per group, once-a-day max 28 days; Buparlisib 30 mg/kg, WNT974 3 mg/kg
Description: NSG mice were trochar implanted in the right hind flank with a passage 1-4, 5 mm^3 TNBC patient derived xenograft (PDX) (ID: BR0901) at The Jackson Laboratory (The Jackson Laboratory, Bar Harbor, Maine). […] 40 TNBC PDX implanted mice were used (10 mice per group: Vehicle, Buparlisib (30 mg/kg), WNT974 (3 mg/kg), and Buparlisib+WNT974). Tumors were grown to an average of 70-150 mm^3 and mice averaged 22.5 grams body weight. Mice were dosed once-a-day for a maximum of 28 days. Tumor measurements were made two times a week. Mice whose tumors reached a size of 1500 mm^3 were euthanized per IACUC protocol.

[11] = known; cited from earlier work
[12] = biological target: T1, Porcupine (Homo sapiens, UniProt Q9H237); conditions: recently published data; cited from earlier work
T1 sequence (Q9H237 1-461): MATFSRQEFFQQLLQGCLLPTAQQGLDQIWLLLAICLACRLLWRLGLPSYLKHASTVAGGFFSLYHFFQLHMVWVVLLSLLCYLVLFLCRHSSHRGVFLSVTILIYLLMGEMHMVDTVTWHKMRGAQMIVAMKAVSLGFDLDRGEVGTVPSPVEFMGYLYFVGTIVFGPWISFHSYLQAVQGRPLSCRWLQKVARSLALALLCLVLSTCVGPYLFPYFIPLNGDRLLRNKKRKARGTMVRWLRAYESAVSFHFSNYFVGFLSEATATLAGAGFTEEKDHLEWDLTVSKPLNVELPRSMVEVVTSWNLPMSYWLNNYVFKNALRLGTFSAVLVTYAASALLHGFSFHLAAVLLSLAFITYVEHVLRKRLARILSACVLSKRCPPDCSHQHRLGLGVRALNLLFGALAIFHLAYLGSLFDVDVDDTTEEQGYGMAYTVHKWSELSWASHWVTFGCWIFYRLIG

[13] = test system: tumor growth; conditions: recently published data; cited from earlier work
[14] = drug given alone, Buparlisib 30 mg/Kg, WNT974 3 mg/Kg
[15] = measured drug given in combination with the other, Buparlisib 30 mg/Kg + WNT974 3 mg/Kg

Compound | AUC(0-inf) [4, 14] [ng·h/mL] | Cmax [4, 14] [ng/mL] | Tmax [4, 14] [h] | half-life [4, 14] [h] | Vd/F [4, 14] [L] | AUC(0-inf) [4, 15] [ng·h/mL] | Cmax [4, 15] [ng/mL] | Tmax [4, 15] [h] | half-life [4, 15] [h] | Vd/F [4, 15] [L] | Cl/F [4, 14] [L/h] | Cl/F [4, 15] [L/h] | tumor volume change (in words) [5] | drug concentrations in tumor tissue [6] | Inhibition of Phospho-AKT in tumors [7] | Axin2 RNA expression in tumors [8] | lung metastases compared with the control group [9] | mice survived to the end of the study [10] [%] | toxicity / most common side effect in humans [11] | other results
Nc1cc(C(F)(F)F)c(-c2cc(N3CCOCC3)nc(N3CCOCC3)n2)cn1 [Buparlisib, 5-(2,6-di-4-morpholinyl-4-pyrimidinyl)-4-(trifluoromethyl)-2-pyridinamine] | 16500 | 2300 | 1 | 3 | 0.15 | 15500 | 2850 | 2 | 2.8 | 0.16 | 0.034 | 0.035 | grew slightly | reaching the tumor | observed | no significant change | small but non-significant decreases | 40 | depression, anxiety, pneumonitis, and liver toxicity | expression of Wnt pathway genes [1]: significant increase; Porcupine (PORCN) gene over-expression after treatment ([1]; preliminary data): approximately 8 fold; phospho-AKT [2]: potent inhibition; Porcupine protein expression [3]: increase
Cc1cc(-c2ncc(CC(=O)Nc3ccc(-c4cnccn4)cn3)cc2C)ccn1 [WNT974, 2-[5-methyl-6-(2-methylpyridin-4-yl)pyridin-3-yl]-N-(5-pyrazin-2-ylpyridin-2-yl)acetamide] | 636 | 165 | 1 | 2.1 | 0.24 | 621 | 143 | 1 | 3 | 0.4 | 0.081 | 0.087 | grew slightly | reaching the tumor | not | decrease | small but non-significant decreases | 0 | dysgeusia | inhibition of its target [12]: potent inhibition; inhibition of tumor growth in vivo [13]: significant inhibition
